Measurements published in ChEMBL document CHEMBL3507680, “University of Dundee, Gates Library screen for HepG2 cell viability”.

Test: Human HepG2 cell viability assay in 384 well format
Format: toxicity, cell-based
Parameters: dose 125 nL, time 70.5 hour; concentration not given beside the values
Conditions: HepG2 cells, read-out: Inhibition

| SMILES | cytotoxicity at 70.5 h [%] |
| --- | --- |
| CC(=O)N1N=C(c2ccccc2)OC1C(=O)NCCc1ccc(Cl)cc1 (configuration not stated) | 8.17 |
| CC(=O)N1N=C(c2ccccc2)OC1C(=O)N(C)Cc1ccccc1 (configuration not stated) | -4.44 |
| Cc1ccc(C)c(-n2ncc(C(=O)NCC3COC(C)(C)O3)c2N)c1 (configuration not stated) | 18.9 |
| CC(C)c1ccc(-n2ncc(C(=O)N(C)C3CCN(C)CC3)c2N)cc1 | -2.55 |
| CC(=O)N1N=C(c2cccs2)OC1C(=O)NCCc1cccc(Cl)c1 (configuration not stated) | 28.8 |
| CC(=O)N1N=C(Cc2ccccc2)OC1C(=O)NCC(=O)OC(C)(C)C (configuration not stated) | -4.37 |
| CC(=O)N1N=C(c2ccco2)OC1C(=O)NCCc1ccc(F)cc1 (configuration not stated) | 0.102 |
| COc1ccc(NC(=O)C2OC(c3cccs3)=NN2C(C)=O)cc1 (configuration not stated) | -1.98 |
| CC(=O)N1N=C(c2cccs2)OC1C(=O)Nc1ccc(C)cc1 (configuration not stated) | 1.28 |
| CC(=O)N1N=C(c2cccs2)OC1C(=O)NCc1ccc(C)o1 (configuration not stated) | -1.09 |
| Nc1c(N2CCCC2)ncnc1N1CCOCC1 | 20.6 |
| CC1CCN(C(=O)c2cnc3cc(C(=O)N(C)C)n(C)c3c2)CC1 | 6.93 |
| Nc1c(N2CCOCC2)ncnc1N1CCOCC1 | 0.518 |
| COc1c(C(=O)N2CCOCC2)cnc2c1c(C)nn2C | 0.987 |
| Cc1nc2cc(C(=O)N(CCC#N)CC3CCCO3)ccc2[nH]1 (configuration not stated) | -1.19 |
| CC(C)(Oc1ccc(C(N)=O)cc1)C(=O)N(CCC#N)CC1CCCO1 (configuration not stated) | 6.27 |
| Cc1nn(-c2ccccc2Cl)c(C)c1CCC(=O)NCCS(C)(=O)=O | 1.1 |
| CC(C)(C)C(=O)CN1Cc2ccccc2NCCC1=O | 0.78 |
| O=C1CCNc2cc3c(cc2CN1CC1CC1)OCO3 | 0.558 |
| COC(=O)CN1Cc2cc3c(cc2NCCC1=O)OCO3 | -9.74 |
| CCCC(O)CN1CC(C)(C)CN(C(=O)c2ccccc2)CC1=O (configuration not stated) | -10.1 |
| CC1(C)CNC(=O)CN(C(=O)CCc2ccccc2)C1 | -3.7 |
| CCCS(=O)(=O)N1CC(=O)N(CCCc2ccccc2)CC(O)C1 (configuration not stated) | 10.8 |
| O=C1CN(S(=O)(=O)CC(F)(F)F)CC(O)CN1CCCc1ccccc1 (configuration not stated) | -3.16 |
| COc1ccccc1CN1CC(OC)CN(C(=O)CC(C)C)CC1=O (configuration not stated) | -5.03 |
| COc1ccccc1CN1CC(OC)CN(C(=O)OCC(C)C)CC1=O (configuration not stated) | -3.02 |

| SMILES | cytotoxicity at 70.5 h [%] |
| --- | --- |
| CCCC(O)CN1CC(C)(C)CN(C(=O)c2ccc(Cl)cc2)CC1=O (configuration not stated) | -9.8 |
| CC1(C)CNC(=O)CN(C(=O)Cc2ccccc2)C1 | 0.101 |
| CCCC(O)CN1CC(C)(C)CN(C(=O)c2ccc(SC)cc2)CC1=O (configuration not stated) | -8.02 |
| O=S1(=O)c2cnccc2OC(COc2ccccc2)CN1CC1CC1 (configuration not stated) | -1.49 |
| CC(C)(C)CN1CC(COc2ccccc2)Oc2ccncc2S1(=O)=O (configuration not stated) | 10.8 |
| CCOC(=O)[C@H]1[C@@H](O)C(=O)N(C)C12CCN(C(=O)CC(C)C)CC2 | -6.09 |
| CCOC(=O)[C@H]1[C@@H](O)C(=O)N(C)C12CCN(S(=O)(=O)CC)CC2 | -10.3 |
| CCOC(=O)[C@H]1[C@@H](O)C(=O)N(C)C12CCN(C(=O)C(CC)CC)CC2 | -3.26 |
| CCOC(=O)[C@H]1[C@@H](O)C(=O)N(C)C12CCN(C(=O)CC1CCCC1)CC2 | -3.01 |
| CCN1CC(CN2CCOCC2)Oc2ncccc2C1=O (configuration not stated) | 13.2 |
| O=C1c2cccnc2OC(CN2CCOCC2)CN1Cc1cccs1 (configuration not stated) | -4.39 |
| CCN1Cc2cc3c(cc2NCCC1=O)OCO3 | 6.48 |
| COCCCN1CC2(CCCCN2C(=O)C2CCCCC2)CC1=O (configuration not stated) | -3.42 |
| CC(=O)N1CCC2(CC1)C(=O)N(c1ccc(C)nc1)CCN2CC(C)C | -4.45 |
| COc1ncccc1CN1CC[C@H]2O[C@@H](c3nnc(C)o3)CC[C@H]21 | -6.07 |
| c1cncc(COCC2CNCc3nccn3C2)c1 (configuration not stated) | 3.07 |
| CC(C)(CO)CNC(=O)c1ccnn1-c1ccc2ccccn12 | -2.1 |
| COCCCN1CC2(CCCCN2C(C)=O)CC1=O (configuration not stated) | -7.86 |
| O=C(CCO)N1CCC2(CCc3ccc(-c4ccoc4)cc32)CC1 | -12.5 |
| COc1ncccc1CN1CC[C@H]2O[C@H](c3nnc(C)o3)CC[C@H]21 | -11.5 |
| CN(C)c1ccc2c(c1)CN(C(=O)c1cnccn1)C2c1cnco1 (configuration not stated) | 22.8 |
| CC1N(CC2CC2)C(=O)COC12CCN(C(=O)c1cccs1)CC2 (configuration not stated) | -5.2 |
| CN(C)c1ccc2c(c1)CN(C(=O)c1c[nH]cn1)C2c1cnco1 (configuration not stated) | 29.3 |
| CC1N(CC2CC2)C(=O)COC12CCN(C(=O)c1ccncc1)CC2 (configuration not stated) | -1.87 |
| CN(C)C[C@H]1C[C@@H]2CN(C(=O)c3ccco3)C[C@@H]2O1 | -2.65 |
| c1cnc(NCc2n[nH]c3c2CCN(Cc2ccncc2)C3)nc1 | -6.35 |

| SMILES | cytotoxicity at 70.5 h [%] |
| --- | --- |
| CCN1CC2(CC1=O)CN(C(=O)NC)CCN(S(C)(=O)=O)C2 (configuration not stated) | -6.12 |
| Cc1cnc(CNC(=O)C[C@@H]2COC[C@H]3CN(C4CCC4)C[C@@H]23)cn1 | 25.6 |
| CN(C)CCN1C[C@@H]2CN(C(=O)C3CC=CC3)C[C@@H]2C1=O | -10.8 |
| CN(C)CC(=O)N1Cc2cc(N(C)C)ccc2C1c1cnco1 (configuration not stated) | -12.7 |
| COCC(=O)N1CCC2(CC1)CCn1c(-c3cccc(OC)c3)cnc12 | 36.2 |
| O=C(O)[C@@H]1CCCN1c1nccc(Nc2ccccc2)n1 | 16 |
| N#Cc1cccc(N2CCCC3(C2)CN(c2ncccn2)CCO3)n1 (configuration not stated) | -6.81 |
| COCc1n[nH]c2c1CN(C(=O)c1ccncc1)C2 | -10.2 |
| CC(=O)N1CCc2cc(C(=O)O)c(-c3ccsc3)nc2CC1 | -0.0308 |
| Cc1nnc([C@@H]2C[C@H]3CN(C4CCC4)C[C@H]3O2)[nH]1 | -0.989 |
| Cc1nnc([C@@H]2C[C@H]3CN(C(=O)c4c(C)noc4C)C[C@H]3O2)[nH]1 | -11.6 |
| Cc1cccc(CN2CCc3[nH]nc(C(=O)N4CCNC(=O)C4)c3C2)n1 | -10.5 |
| Cc1ccc(N2C[C@@H]3CN(C(=O)c4ccccc4)CCO[C@@H]3C2)nn1 | 23.3 |
| CN(C)CCN1C[C@@H]2CN(C(=O)C3CCOC3)C[C@@H]2C1=O (some centres not stated) | 23.4 |
| CC(C)N1CCOCC2(CCCN(C(=O)c3cncn3C)C2)C1 (configuration not stated) | -8.05 |
| O=C1CC[C@H]2[C@H](CCN2c2ccccn2)N1CC1CCOCC1 | -9.84 |
| O[C@@H]1CCN(CC2CCOC2)[C@H]1Cc1ccccc1 (some centres not stated) | -3.68 |
| CN(C)C(=O)COC[C@@]12CCC[C@@H]1CN(C1CCCC1)C2 | -1.63 |
| CC(C)n1nc(Cn2cccc2)c2c1CN(Cc1ccoc1)C2 | -4.83 |
| Cc1ccc(N2CC[C@H]3[C@@H]2CCC(=O)N3CCN2CCOCC2)nn1 | -6.53 |
| CN(C)CCOC1CC2(CCN(c3cnccn3)CC2)c2ccccc21 (configuration not stated) | 31.5 |
| CN(Cc1ccco1)Cc1cnc2n1CCN(c1ccccn1)CC2 | -2.44 |
| CN1CCOCC2(CCN(Cc3ccc[nH]3)CC2)C1 | 30 |
| CC(C)N(C)[C@@H]1CCN(Cc2nccs2)[C@H]1Cc1ccncc1 | -8.84 |
| O=C(O)c1csc(NCCc2ccccc2)n1 | -1.2 |
